Experimental findings from PubChem BioAssay AID743395 (Broad Institute, 2014) are described below.

The subject of this experiment is HepG2 viability, CellTiter-Glo ATP luminescence, 72 h. Briefly: HepG2 cell cytotoxicity, dose response, cytotoxicity control, CellTiter-Glo luminescence, cherry-pick, set 2 (AID 743395). A general note: Cellular ATP, detected with luciferase, serves as a proxy for viable cell number.

With `COc1cccc2c1C(=O)c1c(O)c3c(c(O)c1C2=O)C[C@@](O)(C(C)=O)C[C@@H]3O[C@H]1C[C@H](N)[C@H](O)[C@H](C)O1`, the AC35 is 0.156 µM.

Turning to `COc1ccc(-c2ccc3c(c2)[C@H]2[C@H](CCN2S(=O)(=O)c2ccc(OC)cc2)[C@H](CO)N3C)cc1`, the AC35 was 6.5 µM.

`CCN(CC)CCCNc1ccc2ncn3c4ccc(O)cc4c(=O)c1c23`: the AC35 was 1.03 µM.

As for `C=C1C(=O)O[C@@H]2[C@H]1[C@@H](OC(=O)/C(C)=C/C)C/C(C)=C\C(=O)/C=C(\C)[C@@H]2O`, the AC35 is 8.97 µM.

As for `CCOC(=O)c1ccc(N2CCOCC2)c(NC(=O)c2c(-c3ccccc3)noc2C)c1`, the AC35 was 3.87 µM.

As to `COc1ccc2c3c([nH]c2c1)[C@H](CO)N(C(=O)C1CCOCC1)CC31CCN(Cc2cccc(F)c2)CC1`, the AC35 was 2.74 µM.

On to `CN(C)C(=O)C(CCN1CCC(O)(c2ccc(Cl)cc2)CC1)(c1ccccc1)c1ccccc1`, for which the AC35 was 10.1 µM.

On to `CN1C(=O)NC(=O)C2(CCCC2)C1=O`, for which the AC35 was 9.42 µM.

As for `COc1ccccc1NC(=S)N(Cc1ccco1)Cc1cc2cc(C)cc(C)c2[nH]c1=O`, the AC35 is 11.6 µM.

For `c1ccc2c(NCCCN3CCOCC3)c3ccccc3nc2c1`, the AC35 was 2.78 µM.

For the compound `CC1(C(=O)NCc2ccco2)Cc2c(-c3ccc4c(c3)OCO4)ccnc2O1` (stereo not given), the AC35 is 9.85 µM.

On to `COc1cccc(-c2cc3nc(-c4ccccc4)cc(=O)n3[nH]2)c1`, for which the AC35 is 7.55 µM.

With `CCN(CC)c1ccc(/C=N/NC(=O)c2cnccn2)c(O)c1`, the AC35 is 1.61 µM.

With `CC1=C/C(=C\C=C(C#N)C#N)N(C)c2ccccc21`, the AC35 is 21.3 µM.

Turning to `C1CCC(C(CC2CCCCN2)C2CCCCC2)CC1` (stereo not given), the AC35 was 6.26 µM.

For `COc1ccccc1C#Cc1ccc2c(c1)O[C@@H](CN(C)Cc1cccnc1)[C@H](C)CN([C@H](C)CO)S2(=O)=O`, the AC35 was 22.4 µM.

Turning to `N#CC1=C(N)Oc2c(ccc3cccnc23)C1c1ccccc1` (stereo not given), the AC35 was 6.64 µM.

As for `Nc1ccc2ccc3cccc[n+]3c2c1`, the AC35 was 21.5 µM.

For `O=C(NN=C1CCCC1)c1[nH]c2ccc(Cl)cc2c1-c1ccccc1`, the AC35 is 18.9 µM.

With `O=C1CC(c2ccccc2)CC2=C1C=Nc1ccccc1N2` (stereo not given), the AC35 is 18.3 µM.

In the case of `CC(C)n1cc(/C=C/c2cc[n+](C)cc2)c2ccccc21`, the AC35 was 11.2 µM.

Turning to `COC(=O)c1ccc(S(=O)(=O)N2CCc3ccccc32)cc1`, the AC35 is 16.1 µM.

As to `CC1OC(OC2CC(O)C3(CO)C4C(O)CC5(C)C(C6=CC(=O)OC6)CCC5(O)C4CCC3(O)C2)C(O)C(O)C1O` (stereo not given), the AC35 was 0.201 µM.

In the case of `CN(C)CCn1c2ccccc2c2nc3ccc([N+](=O)[O-])cc3cc21`, the AC35 is 20.8 µM.

With `CCCCn1c(CN2CCN(c3cccc(Cl)c3)CC2)nc2c1c(=O)[nH]c(=O)n2C`, the AC35 was 12.3 µM.

As for `CC(=NNC(=S)N(Cc1ccccn1)Cc1ccccn1)c1cnccn1`, the AC35 is 2.87 µM.

With `COc1ccccc1Nc1c2c(nc3ccccc13)CCC2`, the AC35 was 7.12 µM.

For the compound `CCOc1ccc(NC(=O)c2cc(OC)nc3ccccc23)cc1`, the AC35 was 14.3 µM.

`C=CCCC(=O)Nc1nc(C)c(-c2csc(Nc3cc(OC)ccc3OC)n2)s1`: the AC35 is 5.68 µM.

`Cc1ccc(OCCNC(=O)c2cccc(S(=O)(=O)NCc3ccccc3)c2)cc1`: the AC35 was 15.2 µM.

For the compound `CN(C)CCCN(C(=O)c1ccco1)c1nc(-c2ccc(Cl)cc2)cs1`, the AC35 was 22.2 µM.

On to `CCSC(=O)N1c2ccc(OC)cc2C=CC1C#N` (stereo not given), for which the AC35 was 7.54 µM.

Turning to `CCCC(=O)NC(c1ccc(C(C)C)cc1)c1ccc2cccnc2c1O` (stereo not given), the AC35 is 0.948 µM.

With `CC(C)C[C@H]1CN([C@@H](CC(C)C)CN2CCC[C@@H]2CN2C(=S)NC[C@@H]2Cc2ccc(O)cc2)C(=S)N1CCc1ccccc1`, the AC35 was 19.2 µM.

For the compound `O=C(N=Nc1c(O)[nH]c2ccc(Br)cc12)c1ccccc1-n1cccc1`, the AC35 was 13.1 µM.

For `C[C@@H]1CN([C@@H](C)CO)C(=O)Cc2cc(N(C)C)ccc2O[C@@H]1CN(C)Cc1ccc(C(=O)Nc2ccccc2N)cc1`, the AC35 is 11.5 µM.

Regarding `Cc1ccc2[nH]c(C(=O)N/N=C/c3ccccc3O)c(C)c2c1`, the AC35 was 2.41 µM.

In the case of `COc1ccc(NC(=O)Nc2ccc3c(c2)C(=O)N([C@H](C)CO)C[C@@H](C)[C@H](CN(C)Cc2ccc(C(F)(F)F)cc2)OCCCC[C@H](C)O3)cc1`, the AC35 is 13.9 µM.

Regarding `COc1cc(C(=O)Nc2ccccc2C(=O)Nc2ccccn2)cc(OC)c1OC`, the AC35 is 4.9 µM.

With `CC(=O)Nc1ccc(Nc2c3ccccc3nc3ccccc23)cc1`, the AC35 is 5.33 µM.

For `CCOc1ccc(C)cc1S(=O)(=O)n1cnc2ccccc21`, the AC35 was 11.7 µM.

For the compound `COc1ccc(Nc2nc(-c3sc(C)nc3C)cs2)cc1`, the AC35 is 1.29 µM.

Turning to `Cc1cccc(N2CCN(C(=O)c3ccc4[nH]c(C)c(C)c4c3)CC2)c1C`, the AC35 was 2.5 µM.

In the case of `O=C(C1CC1)N1CC(=O)N2[C@H](CO)[C@@H](c3ccc(-c4ccccc4F)cc3)[C@@H]2C1`, the AC35 is 18.9 µM.

As for `COc1cccc(S(=O)(=O)N(C)C[C@@H]2Oc3cc(C4=CCCC4)ccc3S(=O)(=O)N([C@H](C)CO)C[C@H]2C)c1`, the AC35 was 20.3 µM.

On to `CC(=O)c1ccc(Nc2cc(C)nc3c(C)cc(C)cc23)cc1`, for which the AC35 was 7.71 µM.

With `CCCC(=O)NC(c1ccc(N(C)C)cc1)c1ccc2cccnc2c1O` (stereo not given), the AC35 is 1.18 µM.

On to `O=C1c2cccc3c(O)ccc(c23)C(=O)N1Cc1ccco1`, for which the AC35 was 15.6 µM.

With `Nc1nc(Cl)nc2c1ncn2C1CC(O)C(CO)O1` (stereo not given), the AC35 is 4.65 µM.

As to `COc1cc(OC)c(-c2c3cc(O)c(=O)cc-3oc3cc(O)c(O)cc23)cc1OC`, the AC35 was 13.2 µM.

As to `COc1cccc(Nc2nc(-c3sc(NC(=O)c4ccccc4)nc3C)cs2)c1`, the AC35 was 6.58 µM.

Consider `COc1ccc(S(=O)(=O)N2CC[C@@H]3[C@H](CO)N(C)c4ccc(-c5ccc(F)cc5)cc4[C@@H]32)cc1`, for which the AC35 was 2.21 µM.

For `CN1/C(=C\C=C2/SC(=S)NC2=O)C(C)(C)c2ccccc21`, the AC35 was 17.9 µM.

Take `O=C(c1cccc(F)c1)N1CC[C@@H]2[C@H](CO)Nc3ccc(-c4ccccc4F)cc3[C@@H]21`: the AC35 is 18.1 µM.

Regarding `Cn1cccc1/C=C1\SC(=Nc2cccc(O)c2)NC1=O`, the AC35 is 14.2 µM.

As to `COc1ccc2c3c([nH]c2c1)[C@H](CO)N(S(C)(=O)=O)CC31CCN(Cc2cccc(F)c2)CC1`, the AC35 was 5.92 µM.

Consider `N#CC(C#N)=C1C=C2C=C(N3CCCCCC3)CCC2CC1` (stereo not given), for which the AC35 is 18 µM.

Consider `CN1c2ccc(-c3ccc(F)cc3)cc2[C@H]2[C@H](CCN2S(=O)(=O)c2cccc(F)c2)[C@@H]1CO`, for which the AC35 is 17.3 µM.

As for `COc1cc(Nc2c3c(nc4ccccc24)CCC3)cc(OC)c1OC`, the AC35 was 7.54 µM.

Take `O=C(CCc1ccccc1)NCC(c1ccco1)N1CCc2ccccc21` (stereo not given): the AC35 was 16.7 µM.

Take `COc1ccc(OC)c(-c2cnc(OC(C)(C)C)nc2OC(C)(C)C)c1`: the AC35 was 19.3 µM.

Regarding `COc1cccc(C2c3cc4c(cc3OC(NNC(N)=O)C2C)OCO4)c1O` (stereo not given), the AC35 is 14.3 µM.

`COc1ccc(C)cc1Nc1c2c(nc3ccccc13)CCC2`: the AC35 is 8.79 µM.

For `COc1cc(C(=O)Nc2ccc3c(c2)ncn3C)cc(OC)c1OC`, the AC35 is 14.5 µM.

`NC(=S)NN=Cc1nccc2c(N)cccc12`: the AC35 is 4.16 µM.
